Results published in the supplement of paper PMC4977894.
Where a name gives a salt, the structure may show the parent alone. ± gives the standard deviation of the averaged measurements.

Legend:
[1] = test system: Homo sapiens (human subject panel, olfactory perception); assay: perceived odor familiarity rating (rating 0-100); higher = more familiar
Procedure, shortened: (§1)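 Stimuli were molecules diluted in paraffin oil at high and low concentrations, with 1 mL of each sniffed in randomized order across ten visits of 100 stimuli. Participants were 55 healthy humans aged 18–50, excluding the six lowest performers. Subjects who smelled a stimulus moved a computerized slider away from its starting point of 50, and positions were rescaled to 0–100. Familiarity, intensity and pleasantness are each reported as an average over subjects.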

[2] = test system: Homo sapiens (human subject panel, olfactory perception); assay: perceived odor pleasantness rating (rating 0-100); higher = more pleasant
Procedure, shortened: as §1

[3] = test system: Homo sapiens (human subject panel, olfactory perception); assay: perceived odor intensity rating (rating 0-100); higher = stronger perceived smell
Procedure, shortened: as §1

[4] = odor dilution in paraffin oil: 1/1,000
[5] = odor dilution in paraffin oil: 1/100,000
[6] = odor dilution in paraffin oil: 1/10,000,000
[7] = odor dilution in paraffin oil: 1/10

CC(C)C=O [Isobutyraldehyde]
perceived odor familiarity rating [1, 4]: 43.1 ± 29
perceived odor familiarity rating [1, 5]: 39 ± 31
perceived odor pleasantness rating [2, 4]: 24.3 ± 22
perceived odor pleasantness rating [2, 5]: 27.3 ± 19
perceived odor intensity rating [3, 4]: 77.5 ± 24
perceived odor intensity rating [3, 5]: 61.6 ± 28

C/C=C/c1ccc(OC)cc1 [trans-Anethole]
perceived odor familiarity rating [1, 4]: 74 ± 26
perceived odor familiarity rating [1, 5]: 40 ± 32
perceived odor pleasantness rating [2, 4]: 62.1 ± 26
perceived odor pleasantness rating [2, 5]: 51.3 ± 23
perceived odor intensity rating [3, 4]: 64.3 ± 28
perceived odor intensity rating [3, 5]: 30.8 ± 30

COC(=O)c1ccccc1N [Methyl anthranilate]
perceived odor familiarity rating [1, 4]: 61.8 ± 31
perceived odor familiarity rating [1, 5]: 56.7 ± 30
perceived odor pleasantness rating [2, 4]: 65.3 ± 24
perceived odor pleasantness rating [2, 5]: 64 ± 25
perceived odor intensity rating [3, 4]: 74.6 ± 18
perceived odor intensity rating [3, 5]: 58.3 ± 30

CC(C)CO [2-methyl-1-propanol]
perceived odor familiarity rating [1, 4]: 38.5 ± 34
perceived odor familiarity rating [1, 5]: 35.4 ± 28
perceived odor pleasantness rating [2, 4]: 37.4 ± 23
perceived odor pleasantness rating [2, 5]: 43.5 ± 21
perceived odor intensity rating [3, 4]: 42.5 ± 33
perceived odor intensity rating [3, 5]: 23.4 ± 23

c1cnc2c(n1)CCCC2 [5,6,7,8-Tetrahydroquinoxaline]
perceived odor familiarity rating [1, 5]: 65.5 ± 28
perceived odor familiarity rating [1, 6]: 44.4 ± 26
perceived odor pleasantness rating [2, 5]: 55.6 ± 25
perceived odor pleasantness rating [2, 6]: 42.9 ± 27
perceived odor intensity rating [3, 5]: 68.2 ± 24
perceived odor intensity rating [3, 6]: 40.3 ± 31

O=C(OCCc1ccccc1)c1ccccc1O [Phenethyl salicylate]
perceived odor familiarity rating [1, 7]: 38.8 ± 29
perceived odor familiarity rating [1, 4]: 33.8 ± 29
perceived odor pleasantness rating [2, 7]: 58.9 ± 22
perceived odor pleasantness rating [2, 4]: 49.2 ± 22
perceived odor intensity rating [3, 7]: 37.3 ± 31
perceived odor intensity rating [3, 4]: 17.8 ± 25

CCC(C)=O [2-butanone]
perceived odor familiarity rating [1, 4]: 34.9 ± 32
perceived odor familiarity rating [1, 5]: 27.4 ± 31
perceived odor pleasantness rating [2, 4]: 43.3 ± 28
perceived odor pleasantness rating [2, 5]: 49.6 ± 29
perceived odor intensity rating [3, 4]: 33 ± 33
perceived odor intensity rating [3, 5]: 19.4 ± 26

OC/C=C/c1ccccc1 [Cinnamyl alcohol]
perceived odor familiarity rating [1, 5]: 52
perceived odor pleasantness rating [2, 5]: 32
perceived odor intensity rating [3, 5]: 6

CC1(C)CCC[C@]2(C)[C@H]3CCO[C@]3(C)CC[C@@H]12 [Ambrox]
perceived odor familiarity rating [1, 7]: 61 ± 27
perceived odor familiarity rating [1, 4]: 60.9 ± 28
perceived odor pleasantness rating [2, 7]: 55.7 ± 27
perceived odor pleasantness rating [2, 4]: 62.8 ± 23
perceived odor intensity rating [3, 7]: 73.6 ± 23
perceived odor intensity rating [3, 4]: 50.1 ± 30

CCCCCCOC(=O)CCCCC [Hexyl hexanoate]
perceived odor familiarity rating [1, 7]: 39 ± 26
perceived odor familiarity rating [1, 4]: 38 ± 29
perceived odor pleasantness rating [2, 7]: 43.8 ± 25
perceived odor pleasantness rating [2, 4]: 48.2 ± 23
perceived odor intensity rating [3, 7]: 67.7 ± 26
perceived odor intensity rating [3, 4]: 34.4 ± 26

CCCCCC/C=C\CO [cis-2-Nonen-1-ol]
perceived odor familiarity rating [1, 4]: 46.3 ± 30
perceived odor familiarity rating [1, 5]: 40.8 ± 30
perceived odor pleasantness rating [2, 4]: 34.7 ± 25
perceived odor pleasantness rating [2, 5]: 36 ± 21
perceived odor intensity rating [3, 4]: 77.9 ± 21
perceived odor intensity rating [3, 5]: 54.7 ± 32

C=CCOC(=O)CCC [Allyl butyrate]
perceived odor familiarity rating [1, 4]: 45.2 ± 31
perceived odor familiarity rating [1, 5]: 49.2 ± 28
perceived odor pleasantness rating [2, 4]: 23.7 ± 24
perceived odor pleasantness rating [2, 5]: 33.2 ± 24
perceived odor intensity rating [3, 4]: 78.6 ± 20
perceived odor intensity rating [3, 5]: 54.3 ± 31

CCOC(=O)CC(O)(CC(=O)OCC)C(=O)OCC [Triethyl citrate]
perceived odor familiarity rating [1, 7]: 41.4 ± 29
perceived odor familiarity rating [1, 4]: 26.4 ± 22
perceived odor pleasantness rating [2, 7]: 41.1 ± 19
perceived odor pleasantness rating [2, 4]: 46.2 ± 24
perceived odor intensity rating [3, 7]: 31.3 ± 30
perceived odor intensity rating [3, 4]: 20.4 ± 24

CCC(=O)OCC(C)C [Isobutyl propionate]
perceived odor familiarity rating [1, 4]: 48 ± 27
perceived odor familiarity rating [1, 5]: 41 ± 28
perceived odor pleasantness rating [2, 4]: 58.6 ± 23
perceived odor pleasantness rating [2, 5]: 47.8 ± 23
perceived odor intensity rating [3, 4]: 57.3 ± 30
perceived odor intensity rating [3, 5]: 31.5 ± 28

CC(=O)c1ccccc1N [2-Aminoacetophenone]
perceived odor familiarity rating [1, 4]: 54.8 ± 30
perceived odor familiarity rating [1, 5]: 52.7 ± 30
perceived odor pleasantness rating [2, 4]: 57.5 ± 27
perceived odor pleasantness rating [2, 5]: 58.4 ± 26
perceived odor intensity rating [3, 4]: 71.9 ± 24
perceived odor intensity rating [3, 5]: 66.7 ± 27

O=Cc1ccccc1 [benzaldehyde]
perceived odor familiarity rating [1, 4]: 61.3 ± 27
perceived odor familiarity rating [1, 5]: 45.3 ± 34
perceived odor pleasantness rating [2, 4]: 61.5 ± 29
perceived odor pleasantness rating [2, 5]: 64.6 ± 22
perceived odor intensity rating [3, 4]: 77.4 ± 17
perceived odor intensity rating [3, 5]: 30.6 ± 29

CCCCCCCO [heptanol]
perceived odor familiarity rating [1, 4]: 50.3 ± 30
perceived odor familiarity rating [1, 5]: 44.9 ± 31
perceived odor pleasantness rating [2, 4]: 52.7 ± 25
perceived odor pleasantness rating [2, 5]: 59.6 ± 23
perceived odor intensity rating [3, 4]: 62.7 ± 27
perceived odor intensity rating [3, 5]: 30.3 ± 28

CC/C=C\CCOC(=O)CC [cis-3-Hexenyl propionate]
perceived odor familiarity rating [1, 4]: 60.9 ± 30
perceived odor familiarity rating [1, 5]: 30.7 ± 28
perceived odor pleasantness rating [2, 4]: 64.4 ± 28
perceived odor pleasantness rating [2, 5]: 52 ± 20
perceived odor intensity rating [3, 4]: 61.7 ± 26
perceived odor intensity rating [3, 5]: 20.4 ± 23
